In patent US6469056B1, “Pharmaceutically active compounds, their preparation and use as ECE-inhibitors” (Abbott Laboratories, priority 1997, dated 2002):

Tests used:
Assay type in all cases: biochemical
[1] = target: NEP 24.11 (neutral endopeptidase 24.11) (Homo sapiens, UniProt P08473); assay: NEP 24.11 inhibition
[2] = target: ACE (angiotensin converting enzyme) (Homo sapiens, UniProt P12821); assay: ACE inhibition
[3] = target: T1, recombinant human ECE from CHO cells (Homo sapiens, UniProt P42892); assay: ECE inhibitor test, IC50 determination (Big ET1 cleavage, HPLC); settings: Big ET1 substrate, 1 hour at 37° C., pH 7.2
T1 construct: made in house; host or cells: CHO cells
T1 sequence (P42892 1-770): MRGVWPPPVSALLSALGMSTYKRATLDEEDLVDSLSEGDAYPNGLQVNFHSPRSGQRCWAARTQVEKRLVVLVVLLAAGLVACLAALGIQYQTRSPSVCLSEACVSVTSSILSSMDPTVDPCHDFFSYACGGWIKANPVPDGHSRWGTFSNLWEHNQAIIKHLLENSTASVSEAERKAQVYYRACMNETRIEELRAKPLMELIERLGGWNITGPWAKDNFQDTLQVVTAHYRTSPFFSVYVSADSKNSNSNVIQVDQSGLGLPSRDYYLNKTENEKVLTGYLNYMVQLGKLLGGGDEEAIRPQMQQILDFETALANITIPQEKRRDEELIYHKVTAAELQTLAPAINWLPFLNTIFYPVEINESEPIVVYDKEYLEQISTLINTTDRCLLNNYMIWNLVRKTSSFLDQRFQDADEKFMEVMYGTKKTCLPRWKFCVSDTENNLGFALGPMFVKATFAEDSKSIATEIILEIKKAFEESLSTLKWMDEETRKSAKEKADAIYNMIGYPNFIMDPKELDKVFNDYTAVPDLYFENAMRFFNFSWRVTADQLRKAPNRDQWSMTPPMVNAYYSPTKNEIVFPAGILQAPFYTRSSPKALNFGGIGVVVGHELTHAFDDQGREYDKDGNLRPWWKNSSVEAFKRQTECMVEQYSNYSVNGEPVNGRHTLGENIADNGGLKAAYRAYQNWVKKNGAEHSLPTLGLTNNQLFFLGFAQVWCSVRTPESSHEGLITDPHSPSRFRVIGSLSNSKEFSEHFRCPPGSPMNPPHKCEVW
Description: ECE Inhibitor Tests, IC50 Determinations
Inhibitors of endothelin converting enzyme (ECE) were tested using recombinant human ECE from CHO cells as described in Schmidt et al. (FEBS Letters 356, 1994: 238-243).
The enzyme preparations employed were, after membrane isolation and solubilization, further purified by Mono-Q chromatography and WGA lectin chromatography. The preparations obtained in this way contained no interfering foreign protease activities and had specific activities in the range 1-20 mU/mg. 5 μl of this enzyme solution were preincubated with 495 μl of test buffer (100 mM Pi, 500 mM NaCl, 0,1 mg/ml BSA pH 7.2) and with in each case 5 μl of appropriately concentrated solutions (10^−3 M, 10^−4 M, 10^−5 M etc.) of the inhibitors in the test buffer for 10 minutes. 50 μl aliquots were mixed with 5 μl of 2×10^−3 M Big ET1 solution (=Big Endothelin1) in 0.02% acetic acid. The mixtures were stopped after 1 hour at 37° C. by adding 150 μl of 0.5% TFA (=trifluoroacetic acid) in water, and centrifuged at 10000×g for 5 minutes, and the enzyme reaction was determined by measuring the endothelin formed by means of reversed phase HPLC as described in Takada et al. (Biochem. Biophys. Res. Comm. 176, 1991, 860), K. Ohnaka et al. (Biochem. Biophys. Res. Commun. 168, 1990, 1128). An inhibition plot was produced from the values of the inhibition at the various inhibitor concentrations, and the half-maximum inhibition (IC50) was read off as a measure of the strength of the inhibitory effect.

Chain of ACE (angiotensin converting enzyme) (P12821 30-1306, species assumed): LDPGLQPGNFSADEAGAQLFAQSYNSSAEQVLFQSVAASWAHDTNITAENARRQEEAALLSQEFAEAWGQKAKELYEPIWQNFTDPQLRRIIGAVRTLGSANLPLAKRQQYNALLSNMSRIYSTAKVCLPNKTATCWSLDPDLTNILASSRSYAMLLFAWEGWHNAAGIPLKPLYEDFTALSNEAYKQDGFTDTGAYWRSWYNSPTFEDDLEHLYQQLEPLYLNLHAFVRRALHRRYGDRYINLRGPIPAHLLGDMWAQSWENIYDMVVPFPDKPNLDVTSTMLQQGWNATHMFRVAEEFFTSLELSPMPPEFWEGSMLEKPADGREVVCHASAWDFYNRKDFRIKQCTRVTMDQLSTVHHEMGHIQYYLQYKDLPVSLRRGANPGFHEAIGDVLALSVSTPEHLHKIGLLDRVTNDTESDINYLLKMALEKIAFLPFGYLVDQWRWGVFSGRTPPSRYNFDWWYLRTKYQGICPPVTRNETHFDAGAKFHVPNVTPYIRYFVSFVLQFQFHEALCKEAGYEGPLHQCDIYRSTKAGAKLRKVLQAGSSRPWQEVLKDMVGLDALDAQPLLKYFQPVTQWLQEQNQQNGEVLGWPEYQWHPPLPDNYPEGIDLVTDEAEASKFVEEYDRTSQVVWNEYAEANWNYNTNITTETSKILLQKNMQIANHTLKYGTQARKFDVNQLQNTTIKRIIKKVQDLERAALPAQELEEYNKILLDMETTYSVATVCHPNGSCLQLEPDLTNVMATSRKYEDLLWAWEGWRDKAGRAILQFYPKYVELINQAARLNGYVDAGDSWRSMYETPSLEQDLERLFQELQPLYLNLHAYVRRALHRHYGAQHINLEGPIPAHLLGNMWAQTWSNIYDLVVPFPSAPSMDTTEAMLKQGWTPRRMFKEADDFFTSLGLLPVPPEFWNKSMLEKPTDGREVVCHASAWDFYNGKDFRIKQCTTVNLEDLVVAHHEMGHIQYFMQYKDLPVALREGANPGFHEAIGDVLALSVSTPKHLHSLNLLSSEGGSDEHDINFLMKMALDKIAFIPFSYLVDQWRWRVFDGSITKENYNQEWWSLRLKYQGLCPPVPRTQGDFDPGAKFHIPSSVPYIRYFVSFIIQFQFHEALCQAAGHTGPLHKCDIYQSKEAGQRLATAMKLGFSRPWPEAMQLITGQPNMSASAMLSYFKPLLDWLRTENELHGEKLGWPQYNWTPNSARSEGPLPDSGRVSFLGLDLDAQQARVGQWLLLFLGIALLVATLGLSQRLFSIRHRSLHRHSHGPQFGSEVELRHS
Chain of NEP 24.11 (neutral endopeptidase 24.11) (P08473 whole entry, species assumed): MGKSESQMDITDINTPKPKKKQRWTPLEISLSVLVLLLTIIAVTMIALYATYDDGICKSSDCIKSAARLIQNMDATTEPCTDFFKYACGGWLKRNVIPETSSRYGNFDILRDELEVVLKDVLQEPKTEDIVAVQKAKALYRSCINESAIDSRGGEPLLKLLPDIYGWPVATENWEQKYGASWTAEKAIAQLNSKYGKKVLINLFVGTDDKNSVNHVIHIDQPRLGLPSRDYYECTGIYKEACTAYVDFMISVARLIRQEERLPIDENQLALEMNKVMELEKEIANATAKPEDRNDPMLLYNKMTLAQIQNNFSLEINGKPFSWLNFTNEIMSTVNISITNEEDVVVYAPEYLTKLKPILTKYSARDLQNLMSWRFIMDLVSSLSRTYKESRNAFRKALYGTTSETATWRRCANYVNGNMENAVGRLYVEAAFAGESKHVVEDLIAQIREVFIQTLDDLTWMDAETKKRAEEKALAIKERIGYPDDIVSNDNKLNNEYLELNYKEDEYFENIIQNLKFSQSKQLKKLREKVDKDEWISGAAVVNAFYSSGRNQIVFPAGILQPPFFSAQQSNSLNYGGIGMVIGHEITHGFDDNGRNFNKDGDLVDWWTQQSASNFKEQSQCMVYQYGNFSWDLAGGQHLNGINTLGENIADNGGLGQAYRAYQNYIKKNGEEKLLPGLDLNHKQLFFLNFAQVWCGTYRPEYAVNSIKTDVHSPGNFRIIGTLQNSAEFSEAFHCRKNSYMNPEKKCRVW

| Compound | IC50 [1] | IC50 [2] | IC50 [3] |
| --- | --- | --- | --- |
| CC(C)(C)SSC[C@@H](CN(C(=O)c1ccc(Cl)s1)[C@@H](Cc1ccccc1)C(=O)O)NC(=O)OCC1c2ccccc2-c2ccccc21 [Compound 1b] | > 100 µM | > 100 µM | 3 µM |
| O=C(N[C@@H](Cc1ccccc1)CN(C(=O)c1ccc(Cl)s1)[C@@H](Cc1ccccc1)C(=O)O)OCC1c2ccccc2-c2ccccc21 [Compound 1a] | > 100 µM | > 100 µM | 2 µM |
| O=C(N[C@@H](Cc1ccccc1)CN(C(=O)c1ccc2ccccc2c1)[C@@H](Cc1ccccc1)C(=O)O)OCC1c2ccccc2-c2ccccc21 [Compound 1e] | > 100 µM | > 100 µM | 4 µM |
